The source of these data is patent US8580738B2, “Methods for treatment of reperfusion injury and other cardiac conditions” (The Board of Regents of the University of Texas System, priority 2007, dated 2013).

Data set [1] has as its system rat myocardial ischemia-reperfusion model. The data set can be described thus: Rat myocardial ischemia-reperfusion model (30-min LAD occlusion, 4-hr reperfusion), infarct size. The data set is classed as in vivo. The note with it: for infarct size: 30-min ischemia, 4-hr reperfusion, drug i.v. before ischemia, saline control 25±3%. Here is the method:
Rat MI model is created by 30-min LAD ligation followed by 4-h reperfusion.
(T+C)H: with high dose of terbutaline 1 mg/kg.
Experimental Myocardial Ischemia-Reperfusion Model. The rat myocardial ischemia-reperfusion model will be used (Birnbaum et al., 2005; Huang et al., 2007). This model consists of 30 min coronary artery occlusion followed by 4-hr reperfusion.
Saline (0.5 ml) will be infused to rats serving as control.
Each antagonist or their combination will be infused 20-min prior to DPDPE infusion. Arterial blood pressure and heart rate will be monitored continuously throughout the experiments.

In data set [2] the test system is calcitonin-gene related peptide mRNA in intrinsic cardiac adrenergic cells. Briefly: CGRP mRNA regulation in isolated rat intrinsic cardiac adrenergic (ICA) cells, RT-PCR / quantitative real-time PCR. The following applies: for increase in calcitonin-gene related peptide mRNA (quantitative real-time PCR): isolated rat ICA cells, 60-min treatment, DPDPE 100 nM or epinephrine 1 μmol; for increase in calcitonin-gene related peptide mRNA (quantitative real-time PCR) / effect on calcitonin-gene related peptide mRNA levels: FIG. 3; for effect on calcitonin-gene related peptide mRNA levels: rat ICA cells. Format: cell-based. Here is the method:
0-h represents immediately after 60-min drug treatment. 6-h and 24-h represent 6 and 24 hrs after 60 min drug treatment, respectively. Epi: epinephrine. UT: DPDPE-untreated.
RNA load is verified by the amount of GAPDH. Bar graphs are data normalized to their respective GAPDH mRNA.
For orientation: In qPCR the cycle at which signal appears reflects the starting amount.

In data set [3] the test system is left ventricular systolic function. The data set can be described thus: Left ventricular function by echocardiography after intravenous DPDPE. The data set is classed as in vivo, rat. The text has this:
The measurements were obtained from left ventricular short-axis view using echocardiography.
Intravenous infusion of δ-opioid agonist DPDPE to rats causes sustained increase in left ventricular systolic function as reflected by increased left ventricular fractional shortening and ejection fraction (FIG. 10). The fractional shortening and ejection fraction are two clinical parameters used for evaluating left ventricular function assayed by echocardiograph. This positive inotropic effect elicited by DPDPE sustains for more than 40 minutes following drug injection. Augmenting cardiac contractile function by δ-opioid receptor agonist has not been reported. δ-opioid agonists can augment heart performance and can be beneficial for clinical treatment of congestive heart failure.

For data set [4] the following is noted: cited from earlier work.
[5] abbreviates: DPDPE 100 μg/kg i.v., rats n=3, LV short-axis echocardiography, FIG. 10.

“Also recorded” adds a separate entry of the source. Read-outs that look alike come from different tables or passages of the source. Where no end group is shown, it is not given here.

Regarding `CC(C)(C)NCC(O)c1cc(O)cc(O)c1` (stereo not drawn) [terbutaline], in data set [1] (i.v. infusion before LAD ligation, terbutaline 100 μg/kg, CGRP 30 ng/kg or combination, FIG. 9), the “effect on infarct size, drug delivered before LAD ligation / acute MI” value is given as “no significant infarct-size-reduction”.

Take “CGRP8-37: calcitonin-gene related peptide receptor antagonist (VTHRLAGLLSRSGGVVKNNFVPTNVGSKAF; ends and bridges not checked; UniProt P06881 90-119, looked up, fragment)”: the infarct size in data set [1] (FIG. 6) was determined as 35±8%. Moreover, in data set [1] (CGRP8-37 i.v. 30 min before onset of myocardial ischemia, FIG. 6), the “increase in infarct size compared to saline control” value was found to be 38%.

Consider (D-Pen^2, D-Pen^5)-enkephalin [DPDPE], for which, in data set [2], the “increase in calcitonin-gene related peptide mRNA (quantitative real-time PCR)” value amounted to 2 fold and the “effect on calcitonin-gene related peptide mRNA levels” value is on record as “modestly increases”. Further, in data set [1] (FIG. 6), the infarct size turned out to be 11±2%. Besides, the “reduction of infarct size compared to control group” value in data set [1] (δ-opioid agonist i.v. before ischemia, FIG. 6) came to 57%. Also, in data set [3] (setting [5]), the “increase in ejection fraction” value worked out at 23% and the “increase in fractional shortening” value stood at 54%. For the same compound, in data set [3] (i.v. DPDPE, rats), the “duration of positive inotropic effect following drug injection” value is listed as “more than 40 minutes”.

Regarding `COc1cccc2c1C(=O)c1c(O)c3c(c(O)c1C2=O)C[C@@](O)(C(=O)CO)C[C@@H]3O[C@H]1C[C@H](N)[C@H](O)[C@H](C)O1` [doxorubicin], the “incidence of doxorubicin-induced cardiomyopathy” value in data set [4] (dose of 501-550 mg/m^2 body surface area) is on record as > 5%; in data set [4] (dose over 550 mg/m^2) it was 30%.

Take `CNC[C@H](O)c1ccc(O)c(O)c1` [epinephrine]: the “increase in calcitonin-gene related peptide mRNA compared to untreated (UT) group” value in data set [2] (ICA cells treated with epinephrine for 1 hr, FIG. 5) stood at 6 fold. Also, the “duration of CGRP gene regulatory effect” value in data set [2] (following a brief 60-min epinephrine treatment) turned out to be 24 h. In data set [2], the “increase in calcitonin-gene related peptide mRNA (quantitative real-time PCR)” value was determined as 14 fold and the “effect on calcitonin-gene related peptide mRNA levels” value is “increases”.

`Cc1ccc(OCC(O)C(C)NC(C)C)c2c1CCC2` (stereo not drawn) [ICI-118551]: in data set [2] (ICA cells, epinephrine in the presence of ICI-118551, FIG. 5), the “effect on epinephrine-induced CGRP gene upregulation” value is reported as “epinephrine failed to increase; also recorded: attenuated”. Besides, the “effect on epinephrine-induced CGRP mRNA regulation” value in data set [2] (ICI at 50 μmol/L, ICA cells, FIG. 5) is given as “completely eliminated”.
